Assay results taken from paper PMC12387182, “Polyphenolic Profiling and Evaluation of Antioxidant, Antidiabetic, Anti-Alzheimer, and Antiglaucoma Activities of Allium kharputense and Anchusa azurea var. azurea” (Life, 2025).

System: not listed separately
Experiment: DPPH scavenging activity
Settings: not given
Method: DPPH solution was prepared one day before the experimental measurement. The solution bottle was kept in the dark and stirred at 4 °C for 16 h. Aluminum foil was used to cover the bottle. Shortly after the preparation of 0.1 mM DPPH solution in ethanol, 0.5 mL of this solution was added to 2 mL A. kharputense and A. azurea extracts in ethanol at various concentrations (10–30 µg/mL). A. kharputense and A. azurea samples were vortexed and incubated at 30 °C for 30 min in the dark. The DPPH^• absorbances were measured and evaluated at 517 nm in comparison with the blank sample [40].

In order of falling “DPPH^• Scavenging IC50” value:
1. Cc1c(C)c2c(c(C)c1O)CC[C@@](C)(CCC[C@H](C)CCC[C@H](C)CCCC(C)C)O2 [α-Tocopherol, α-tocopherol]  30.29 ± 0.056 µg/mL
2. COc1ccc(O)c(C(C)(C)C)c1 [BHA, butylated hydroxyanisole]  23.87 ± 0.097 µg/mL
3. Cc1c(C)c2c(c(C)c1O)CCC(C)(C(=O)O)O2 (centres unmarked) [Trolox]  20.98 ± 0.016 µg/mL
4. O=C1O[C@H]([C@@H](O)CO)C(O)=C1O [Ascorbic acid]  18.61 ± 0.120 µg/mL
5. Cc1cc(C(C)(C)C)c(O)c(C(C)(C)C)c1 [BHT, butylated hydroxytoluene]  13.34 ± 0.011 µg/mL

System: not given
Experiment: not given
Settings: cited from earlier work

For `O=C1O[C@H]([C@@H](O)CO)C(O)=C1O` [Ascorbic acid], the “DPPH radical scavenging activity (IC50)” value is listed as 3.6 µg/mL.

System: not listed separately
Experiment: Cu^2+ reducing ability (CUPRAC)
Settings: absorbance at 30 µg/mL
Method: Equal volumes of 1.0 mM CuCl2, 7.5 mM neocuprine solutions, and 1.0 M ammonium acetate buffer (pH 6.5) were prepared according to the technique of Apak et al.. The plants were mixed with three different concentrations of the samples (15–45 µg/mL in ethanol), and the total reaction volume was adjusted to 2 mL. After the tubes were kept at room temperature for 30 min, the absorbance values at 450 nm were read spectrophotometrically.

In order of rising “Cu^2+ Reducing A (450 nm)” value:
1. Cc1c(C)c2c(c(C)c1O)CCC(C)(C(=O)O)O2 (centres unmarked) [Trolox]  1.04 ± 0.102
2. Cc1c(C)c2c(c(C)c1O)CC[C@@](C)(CCC[C@H](C)CCC[C@H](C)CCCC(C)C)O2 [α-Tocopherol, α-tocopherol]  1.47 ± 0.044
3. COc1ccc(O)c(C(C)(C)C)c1 [BHA, butylated hydroxyanisole]  1.58 ± 0.016
4. Cc1cc(C(C)(C)C)c(O)c(C(C)(C)C)c1 [BHT, butylated hydroxytoluene]  2.15 ± 0.068

System: not listed separately
Experiment: Fe^3+-TPTZ reducing (FRAP)
Settings: absorbance at 30 µg/mL
Method: The ferric reducing capacity (FRAP) of plasma is measured using the technique outlined. At low pH, a strong blue hue with a maximum absorption at 593 nm is produced when a ferric–tripyridyltriazine (Fe^3+-TPTZ) complex is reduced to the Fe^2+ form.

In order of rising “Fe^3+-TPTZ Reducing A (593 nm)” value:
1. Cc1c(C)c2c(c(C)c1O)CCC(C)(C(=O)O)O2 (centres unmarked) [Trolox]  0.84 ± 0.010
2. Cc1cc(C(C)(C)C)c(O)c(C(C)(C)C)c1 [BHT, butylated hydroxytoluene]  1.50 ± 0.080
3. COc1ccc(O)c(C(C)(C)C)c1 [BHA, butylated hydroxyanisole]  1.75 ± 0.040

System: not listed separately
Experiment: Fe^3+ reducing
Settings: absorbance at 30 µg/mL

In order of falling “Fe^3+ Reducing A (700 nm)” value:
1. Cc1cc(C(C)(C)C)c(O)c(C(C)(C)C)c1 [BHT, butylated hydroxytoluene]  2.08 ± 0.062
2. COc1ccc(O)c(C(C)(C)C)c1 [BHA, butylated hydroxyanisole]  1.76 ± 0.026
3. Cc1c(C)c2c(c(C)c1O)CCC(C)(C(=O)O)O2 (centres unmarked) [Trolox]  1.45 ± 0.005
4. Cc1c(C)c2c(c(C)c1O)CC[C@@](C)(CCC[C@H](C)CCC[C@H](C)CCCC(C)C)O2 [α-Tocopherol, α-tocopherol]  0.94 ± 0.059

System: not listed separately
Experiment: ABTS scavenging activity
Settings: not given
Method: In addition, the ABTS^•^+ scavenging capacity of A. kharputense and A. azurea was determined. The mixture comprised 2 mM ABTS in water combined with 2.45 mM potassium persulfate (K2S2O8) to form ABTS^•+. This mixture was then kept for six hours at room temperature and in the dark. The study was performed by first diluting the solution in phosphate buffer (pH 7.4) to achieve an absorption of 0.800 ± 0.05 at 734 nm in a 1 mL cuvette. The solution was then equilibrated at 30 °C, the temperature at which all subsequent tests were conducted. Subsequently, 3 mL of each of A. kharputense and A. azurea in ethanol at various concentrations (10–30 µg/mL) were combined with 1 mL each of ABTS^•+ solution. Following a 30 min period of agitation, the absorbances were measured at 734 nm, and the radical scavenging activities were calculated for each concentration.

In order of rising “ABTS^•+ Scavenging IC50” value:
1. Cc1c(C)c2c(c(C)c1O)CC[C@@](C)(CCC[C@H](C)CCC[C@H](C)CCCC(C)C)O2 [α-Tocopherol, α-tocopherol]  25.12 ± 0.070 µg/mL
2. O=C1O[C@H]([C@@H](O)CO)C(O)=C1O [Ascorbic acid]  28.79 ± 0.120 µg/mL
3. Cc1cc(C(C)(C)C)c(O)c(C(C)(C)C)c1 [BHT, butylated hydroxytoluene]  32.00 ± 0.100 µg/mL
4. COc1ccc(O)c(C(C)(C)C)c1 [BHA, butylated hydroxyanisole]  38.59 ± 0.130 µg/mL
5. Cc1c(C)c2c(c(C)c1O)CCC(C)(C(=O)O)O2 (centres unmarked) [Trolox]  53.26 ± 0.070 µg/mL

Molecular target: α-glycosidase (Saccharomyces cerevisiae, UniProt P53341)
Experiment: not given
Settings: cited from earlier work

Chain of α-glycosidase (P53341 whole entry): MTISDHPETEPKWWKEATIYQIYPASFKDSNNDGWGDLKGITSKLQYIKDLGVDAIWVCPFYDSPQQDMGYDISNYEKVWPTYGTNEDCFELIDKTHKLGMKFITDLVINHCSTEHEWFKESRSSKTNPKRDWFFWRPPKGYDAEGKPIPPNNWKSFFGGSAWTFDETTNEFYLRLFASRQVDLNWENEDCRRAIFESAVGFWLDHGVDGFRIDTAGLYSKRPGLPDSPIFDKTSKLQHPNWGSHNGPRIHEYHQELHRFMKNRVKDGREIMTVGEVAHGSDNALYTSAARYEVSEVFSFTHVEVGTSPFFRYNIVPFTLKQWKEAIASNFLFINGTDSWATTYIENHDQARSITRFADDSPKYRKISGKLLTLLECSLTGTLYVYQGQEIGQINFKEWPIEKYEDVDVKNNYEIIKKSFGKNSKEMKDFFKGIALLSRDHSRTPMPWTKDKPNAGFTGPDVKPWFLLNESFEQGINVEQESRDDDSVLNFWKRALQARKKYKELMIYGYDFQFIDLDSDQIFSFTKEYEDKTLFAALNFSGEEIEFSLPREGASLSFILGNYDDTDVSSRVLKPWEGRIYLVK

For `O=c1c(O[C@@H]2O[C@H](CO)[C@@H](O)[C@H](O)[C@H]2O)c(-c2ccc(O)c(O)c2)oc2cc(O)cc(O)c12` [isoquercitrin], the “α-glycosidase inhibitory effect compared with Acarbose” value is given as “stronger than that of Acarbose”.
